In ChEMBL document CHEMBL5543108, “Structure-based design and synthesis of BML284 derivatives: A novel class of colchicine-site noncovalent tubulin degradation agents” (Eur J Med Chem, 2024):

Columns and labels:
[1] = tested on: A2780/Taxol; assay: Induction of cell cycle arrest in human A2780T cells assessed as accumulation of cells at S phase at 3 nM measured after 24 hrs by propidium iodide staining based analysis (reference value: 29.73%); type: functional
[2] = Half life in male Sprague-Dawley rat at 10 mg/kg, po; type: ADME, organism-based; details: in vivo
[3] = Selectivity ratio of IC50 for human MCF7ADR cells to IC50 for human MCF7; type: toxicity
[4] = molecular target: Tubulin beta (Homo sapiens) (UniProt P68371+Q9H4B7+Q13509+P04350+Q3ZCM7+P07437+Q13885+Q9BVA1+Q9BUF5+A6NNZ2); assay: Binding affinity to beta-tubulin colchicine binding site in human HeLa cells assessed as inhibition of EBI-beta-tubulin adduct band formation by EBI competition based Western blot analysis; type: cell-based; details: dose 0.2-25 µM
[5] = Volume of distribution at steady state in male Sprague-Dawley rat at 10 mg/kg, po; type: ADME, organism-based; details: in vivo
[6] = tested on: A2780/Taxol; assay: Induction of cell cycle arrest in human A2780T cells assessed as accumulation of cells at G0/G1 phase at 300 nM measured after 24 hrs by propidium iodide staining based analysis (reference value: 46.141%); type: functional

half-life [2]: 356 min
Activity [4]: Dose-Dependent Effect
Vdss [5]: 154.68 L/kg
Compound: COc1cccc(-c2cc(NCc3ccc4[nH]ccc4c3)nc(N)n2)c1
Activity [1]: 29.77%
Ratio IC50 [3]: 1.6
Activity [6]: 4.64%
